Reference: patent publication US7169592B2, “Producing optically active amino compounds” (Kaneka Corporation, priority 1997, dated 2007)
Marks after values point to notes of the source that are not given here.

Tests used:
[1] = system: transaminase (intracellular enzyme); experiment: Activity of the transaminase (intracellular enzyme) on typical substrates of ω-aminotransferases; type: biochemical, Arthrobacter sp. KNK168
[2] = system: Transaminase of Present Invention (purified enzyme); experiment: Reactivity of purified transaminase to amino compounds (amino group donors) with pyruvic acid as acceptor; type: biochemical, Arthrobacter sp. KNK168; set-up: Substrate Specificity, relative activity: concentration or dose not given beside the values; settings: for Relative Activity: amino compound 40 mM in substrate solution, pyruvic acid acceptor, pH 8.3, 30° C., 1 hour, (R)-1-phenylethylamine = 100; for Reactivity as amino compound (in words): pyruvic acid as amino acceptor
Excerpt: (§1) The differences with the ω-amino acid transaminase derived from Pseudomonas sp. F-1 (Agric. Biol. Chem., 42, 2363–2367 (1978), Agric. Biol. Chem., 43, 1043–1048 (1979), J. Biol. Chem., 258, 2260–2265 (1983)) which have been well studied among the ω-amino acid transaminases, and with the benzylamine transaminase of Okada et al. (Japanese Patent Laid-Open No. Hei 6-178685) are summarized and shown in Table 2. In a case of the transaminase reaction in the present invention, the data of the purified enzyme are used, and in cases of those by other two enzymes, the data of the purified enzymes which are disclosed in each of the literature publication and laid-open patent publication are used. Pyruvic acid is used as an amino group acceptor in all cases.
Using the purified enzyme protein obtained in Example 9, reactivities to various amino compounds when using pyruvic acid as an amino acceptor were evaluated. A 150 μl solution of the purified enzyme protein solution diluted ten-folds was added to a 150 μl substrate solution [0.1 M potassium phosphate buffer (pH 8.3), 40 mM pyruvic acid, 0.1 mM pyridoxal phosphate, and 40 mM various amino compounds]. The components were reacted at 30° C. for 1 hour. The reaction tube was transferred into boiling water to stop the reaction, and thereafter, a part of the reaction mixture was diluted five-folds. Ten μl 0.1 M boric acid buffer (pH 8.0) and a 20 μl ethanol solution of 80 mM 4-fluoro-7-nitro-2,1,3-benzoxadiazole (NBD-F) were added to the 10 μl above-mentioned diluted reaction mixture. The resulting mixture was reacted at 60° C. for 1 minute, and thereafter, the resulting mixture was ice-cooled, and 460 μl 5 mM HCl was added thereto. This reaction mixture was analyzed by high-performance liquid chromatography using a fine pack C18-5 column (manufactured by Nippon Bunko) I and using 0.1 M potassium phosphate buffer (pH 6.5) and CH3CN (90:10) as an eluent to detect formation of NBD-Alanine with an excitation wavelength of 470 nm and a detection wave of […]. The results thereof are shown in Table 8 in terms of relative activity in the case of using […] as a substrate.

[3] = system: purified enzyme protein (transaminase); experiment: Reactivity of purified transaminase to carbonyl compounds with (R)-1-phenylethylamine as amino group donor; type: biochemical, Arthrobacter species KNK168; settings: for Relative Activity: 25 mM carbonyl compound, 25 mM (R)-1-phenylethylamine, pH 8.5, 30° C., pyruvic acid = 100; for Reactivity as carbonyl compound (in words): (R)-1-phenylethylamine as amino group donor
Procedure: Using the purified enzyme protein obtained in Example 9, reactivities to various carbonyl compounds using (R)-1-phenylethylamine as an amino group donor were evaluated. A 50 μl solution of the purified enzyme protein was added to 200 μl substrate solution [0.1 M Tris-HCl buffer (pH 8.5), 25 mM (R)-1-phenylethylamine, 0.1 mM pyridoxal phosphate, and 25 mM various carbonyl compounds], and the mixture was reacted at 30° C. for 1 to 3 hours in tube. The reaction tube was transferred into boiling water to stop the reaction, and thereafter, the reaction mixture was diluted five-folds with methanol. This diluted solution was analyzed by high-performance liquid chromatography using a fine pack C18-5 column and using methanol-water (20:80) as an eluent to quantitate acetophenone formed by the reaction.

[4] = system: Transaminase of Present Invention (purified enzyme); experiment: Influence of reaction inhibitors on purified transaminase; type: biochemical, Arthrobacter sp. KNK168; settings: inhibitor 1 mM; without addition = 100
Excerpt: as §1

[5] = system: Arthrobacter species KNK168 strain; experiment: Surfactant and fatty acid additives in whole-cell transamination; type: cell-based; settings: for (R)-DMA Formed: 30° C., pH 8.5, 20 hours; for Effect of additive on yield of reaction product (in words): whole cells
Procedure: The cells obtained by culturing the Arthrobacter species KNK168 strain in the R medium were suspended in a reaction mixture containing 2% 1-(3,4-dimethoxyphenyl)-2-propanone and 4% (RS)-1-phenylethylamine. The surfactants and fatty acids shown in Table 6 were added thereto, and the mixture was reacted at 30° C. at a pH of 8.5 for 20 hours.

[6] = system: Arthrobacter species KNK168 strain; experiment: Amino group donors in whole-cell transamination of 1-(3,4-dimethoxyphenyl)-2-propanone; type: cell-based
Procedure: The cultured cells were harvested by centrifugation, and the harvested cells were suspended in a reaction mixture (pH 8.5) containing 1% 1-(3,4-dimethoxyphenyl)-2-propanone, 0.1% Triton X-100, and 1% an amino group donor shown in Table 5. The mixture was reacted at 35° C. for 20 hours.

[7] = target: T1, ω-amino acid transaminase (Pseudomonas putida, UniProt P28269); settings: purified enzyme, literature; pyruvic acid as amino group acceptor; cited from earlier work
T1 sequence (P28269 1-449): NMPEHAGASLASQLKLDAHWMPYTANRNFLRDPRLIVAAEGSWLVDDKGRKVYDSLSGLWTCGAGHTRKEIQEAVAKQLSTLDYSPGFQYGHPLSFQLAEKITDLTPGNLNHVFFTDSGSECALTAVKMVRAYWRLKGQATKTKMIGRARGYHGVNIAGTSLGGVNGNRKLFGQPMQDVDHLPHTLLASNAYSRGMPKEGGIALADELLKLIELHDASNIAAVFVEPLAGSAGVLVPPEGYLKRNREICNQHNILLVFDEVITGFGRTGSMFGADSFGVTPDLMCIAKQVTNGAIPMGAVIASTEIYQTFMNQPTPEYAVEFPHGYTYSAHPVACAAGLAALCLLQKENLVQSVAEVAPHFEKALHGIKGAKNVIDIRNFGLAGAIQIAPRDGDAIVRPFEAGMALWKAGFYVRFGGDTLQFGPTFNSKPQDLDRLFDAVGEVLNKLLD

[8] = amino group acceptor pyruvic acid, (R)-1-phenylethylamine = 100 (control)
[9] = amino group acceptor 2-ketoglutaric acid, (R)-1-phenylethylamine/pyruvic acid = 100 (control)
[10] = additive 0.1%, no addition 28.1
[11] = 1% amino group donor, 1% 1-(3,4-dimethoxyphenyl)-2-propanone, 0.1% Triton X-100, pH 8.5, 35° C., 20 hours

C[C@@H](N)c1ccccc1 [(R)-1-Phenylethylamine]
Activity on the substance as amino group donor (in words) [1]: especially high activity | Relative Activity [1, 8]: 100* % | Relative Activity [2]: 100%

CC(=O)c1ccccn1 [2-Acetylpyridine]
Relative Activity [3]: 19%

CC(=O)c1ccncc1 [4-Acetylpyridine]
Relative Activity [3]: 27%

O=C(O)CC(=O)C(=O)O [Oxalacetic acid]
Relative Activity [3]: 87% | Reactivity as carbonyl compound (in words) [3]: favorable reactivities

CC(=O)CCc1ccccc1 [Benzyl acetone]
Relative Activity [3]: 3%

NC1C=CC=C(C(=O)O)C1 (racemic) [Gabaculine]
Relative activity with inhibitor [4]: 24%

NCCCCC(N)C(=O)O (racemic) [DL-Lysine]
Relative Activity [1, 9]: 0%

COc1ccc(CCC(C)=O)cc1 [4-(4-Methoxyphenyl)-2-butanone]
Relative Activity [3]: 7%

CCCCCCCCCCCCCCCC[N+](C)(C)C.[Br-] [Cetyl trimethyl ammonium bromide]
(R)-DMA Formed [5, 10]: 29.1%

N[C@H](CO)c1ccccc1 [(S)-2-Phenylglycinol]
Relative Activity [2]: 180% | Reactivity as amino compound (in words) [2]: favorable reactivities

CCCCCCCCCCCCOS(=O)(=O)[O-].[Na+] [Sodium dodecyl sulfate]
(R)-DMA Formed [5, 10]: 45.3% | (R)-DMA Formed ([5]; additive 0.5%): 42.2% | (R)-DMA Formed ([5]; additive 1.0%): 46.3% | (R)-DMA Formed ([5]; additive 2.0%): 50.1% | (R)-DMA Formed ([5]; additive 3.0%): 51.9% | (R)-DMA Formed ([5]; additive 4.0%): 53.1% | Effect of additive on yield of reaction product (in words) [5]: yield of the reaction product was increased

CCOC(=O)CC(=O)c1ccccc1 [Ethyl benzoyl acetate]
Relative Activity [3]: 2%

CC(N)CCc1ccccc1 (racemic) [(RS)-2-Amino-4-phenylbutane]
(R)-DMA Formed [6, 11]: 27.6%

CC(N)c1ccccc1 (racemic) [(RS)-1-Phenylmethylamine]
(R)-DMA Formed [6, 11]: 3.1%

O=CC(=O)O [Glyoxylic acid]
Relative Activity [3]: 4%

N[C@@H](CO)c1ccccc1 [(R)-2-Phenylglycinol]
Relative Activity [2]: 0%

CCC(=O)Cc1ccccc1 [1-Phenyl-2-butanone]
Relative Activity [3]: 1%

C[C@@H](N)c1cccc2ccccc12 [(R)-1-Naphthylethylamine]
(R)-DMA Formed [6, 11]: 34.2%

CC(=O)c1cccnc1 [3-Acetylpyridine]
Relative Activity [3]: 8%

COCC(C)=O [1-Methoxy-2-propanone]
Relative Activity [3]: 16%

CC(N)CO (racemic) [(RS)-2-Amino-1-propanol]
(R)-DMA Formed [6, 11]: 9.6%

CC(=O)C(=O)O [Pyruvic acid]
Relative Activity [3]: 100%

COc1ccc(CC(C)=O)cc1OC [1-(3,4-Dimethoxyphenyl)-2-propanone]
Relative Activity [3]: 7%

O=C1CCCc2ccccc21 [1-Tetralone]
Relative Activity [3]: 1%

CC(=O)Oc1cccnc1 [3-Acetoxypyridine]
Relative Activity [3]: 1%

CC(N)CC(=O)O (racemic) [DL-3-Aminobutyric acid]
Action of the transaminase on the substance (in words) [2]: does not act on | Substrate Specificity, relative activity ([2]; purified enzyme, pyruvic acid as amino group acceptor): 0% | Substrate Specificity, relative activity [7]: 96%

CCCCC(C)CN (stereo not drawn) [2-Methylhexylamine]
Relative Activity [2]: 37%

C[C@H](N)c1ccccc1 [(S)-1-Phenylethylamine]
Relative Activity [2]: 0%

CC(=O)c1cnccn1 [2-Acetylpyrazine]
Relative Activity [3]: 17%

Triton X-100
(R)-DMA Formed [5, 10]: 31.6% | (R)-DMA Formed ([5]; additive 0.5%): 34.0%

NCCC(N)C(=O)O (stereo not drawn) [α-2,4-Diaminobutyric acid]
Relative Activity [1, 8]: 0%

NCCS(=O)(=O)O [Taurine]
Relative Activity [1, 9]: 0%

CCOC(=O)CC(C)=O [Ethyl acetoacetate]
Relative Activity [3]: 4%

CCOC(=O)C(C)=O [Ethyl pyruvate]
Relative Activity [3]: 27%

CCC(=O)C(=O)O [2-Ketobutyric acid]
Relative Activity [3]: 7%

CC(N)CCc1ccccc1 (stereo not drawn) [3-Aminophenylbutane]
Relative Activity [2]: 84% | Reactivity as amino compound (in words) [2]: favorable reactivities

O=CCc1ccccc1 [Phenyl acetaldehyde]
Relative Activity [3]: 13%

NC(CO)Cc1ccccc1 (racemic) [(RS)-2-Amino-3-phenylpropanol]
(R)-DMA Formed [6, 11]: 22.7%

CC(=O)C(C)=O [Diacetyl]
Relative Activity [3]: 10%

CCCCC/C=C\C/C=C\CCCCCCCC(=O)O [Linoleic Acid]
(R)-DMA Formed ([5]; additive 2.9%): 45.1% | Effect of additive on yield of reaction product (in words) [5]: yield of the reaction product was increased

CC(=O)COc1ccccc1 [Phenoxy-2-propanone]
Relative Activity [3]: 83% | Reactivity as carbonyl compound (in words) [3]: favorable reactivities

CCCCCCC(C)N (stereo not drawn) [1-Methylheptylamine]
Relative Activity [2]: 47%

NC(=O)CC(N)C(=O)O (racemic) [DL-Asparagine]
Relative Activity [1, 9]: 0%

CC(=O)c1ccco1 [2-Acetylfuran]
Relative Activity [3]: 2%

CCCCCCCC/C=C\CCCCCCCC(=O)O [Oleic Acid]
(R)-DMA Formed ([5]; additive 2.9%): 44.9% | Effect of additive on yield of reaction product (in words) [5]: yield of the reaction product was increased

NC(CO)c1ccccc1 (racemic) [(RS)-2-Amino-2-phenylethanol]
(R)-DMA Formed [6, 11]: 48.4%

N[C@H](CO)Cc1ccccc1 [L-Phenylalaninol]
Relative Activity [2]: 0.8%

CCC(C)N (stereo not drawn) [1-Methylpropylamine]
Relative Activity [2]: 1.2%

2-Decane
Relative Activity [3]: 3%

CC(CN)c1ccccc1 (racemic) [(RS)-1-Amino-2-phenylpropane]
(R)-DMA Formed ([6]; pH 8.5): 1.8%

NCCCC(N)C(=O)O (stereo not drawn) [2,5-Diaminovalerate]
Relative Activity [1, 9]: 2%

CC(=O)c1nccs1 [2-Acetylthiazole]
Relative Activity [3]: 10%

CC(=O)c1cccs1 [2-Acetylthiophene]
Relative Activity [3]: 1%

NCCCC(N)C(=O)O (racemic) [DL-Ornithine]
Relative Activity [1, 9]: 0%

NC(=O)CCC(N)C(=O)O (racemic) [DL-Glutamine]
Relative Activity [1, 9]: 0%
